Reference: US20260250320A1, “LIPIDATED PEPTIDE INHIBITORS OF INTERLEUKIN-23 RECEPTOR” (Janssen Pharmaceutica NV, priority 2023, published 2026)
*1 amine or outer side, *2 acyl side, *3 side chain or, on linkers, in order; H or OH if unused. Where a SMILES comes first, the peptide text is derived from it. Bridges are numbered along the chain shown (N, C = ends). Side-chain parts run from the residue outwards. [ ]: non-standard residue; d: D form. The star is where a group is joined. ξ: configuration not given here. Me3N+CH2CH2(OCH2CH2)4CO = C[N+](C)(C)CCOCCOCCOCCOCCC(=O)*; X28 = CC(=O)[C@H](CCC(=O)*)NC(=O)CCCCCCCCCCCCCCCCC(=O)O; Trp(7-Me) = Cc1cccc2c(C[C@H](N)C(=O)O)c[nH]c12; C16 diacid = O=C(O)CCCCCCCCCCCCCCC(=O)*; X6 = CN(CC[C@H](N[*:1])C(=O)[*:2])[*:3]; γGlu = O=C(O)[C@H](CCC(=O)[*:2])N[*:1]; 2Nal = N[C@@H](Cc1ccc2ccccc2c1)C(=O)O; PEG6 = NCCOCCOCCOCCOCCOCCOCCC(=O)O; ξAEF = NCCOc1ccc(CC(N)C(=O)O)cc1; 3Pal = N[C@@H](Cc1cccnc1)C(=O)O; NMeK = CN[C@@H](CCCCN)C(=O)O; Pen = CC(C)(S)[C@H](N)C(=O)O; Thp = NC1(C(=O)O)CCOCC1; X1 = C[N+](C)(C)CCCCC*; AEEA = NCCOCCOCC(=O)O; Sar = CNCC(=O)O

Columns and labels:
IL-23R = biological target: T1, IL-23R (Homo sapiens, UniProt Q5VWK5); assay: IL23R Reporter Assay; format: cell-based; conditions: HEK293 cells containing IL-23R, IL-12Rβ1 and STAT-inducible firefly luciferase reporter; 10 ng/mL IL-23 (EC90); 5 h
T1 construct: HEK293 cells containing IL-23R, IL-12Rβ1 and a firefly luciferase reporter gene driven by a STAT-inducible promoter (Promega); host or cells: HEK293
T1 sequence (Q5VWK5 24-629): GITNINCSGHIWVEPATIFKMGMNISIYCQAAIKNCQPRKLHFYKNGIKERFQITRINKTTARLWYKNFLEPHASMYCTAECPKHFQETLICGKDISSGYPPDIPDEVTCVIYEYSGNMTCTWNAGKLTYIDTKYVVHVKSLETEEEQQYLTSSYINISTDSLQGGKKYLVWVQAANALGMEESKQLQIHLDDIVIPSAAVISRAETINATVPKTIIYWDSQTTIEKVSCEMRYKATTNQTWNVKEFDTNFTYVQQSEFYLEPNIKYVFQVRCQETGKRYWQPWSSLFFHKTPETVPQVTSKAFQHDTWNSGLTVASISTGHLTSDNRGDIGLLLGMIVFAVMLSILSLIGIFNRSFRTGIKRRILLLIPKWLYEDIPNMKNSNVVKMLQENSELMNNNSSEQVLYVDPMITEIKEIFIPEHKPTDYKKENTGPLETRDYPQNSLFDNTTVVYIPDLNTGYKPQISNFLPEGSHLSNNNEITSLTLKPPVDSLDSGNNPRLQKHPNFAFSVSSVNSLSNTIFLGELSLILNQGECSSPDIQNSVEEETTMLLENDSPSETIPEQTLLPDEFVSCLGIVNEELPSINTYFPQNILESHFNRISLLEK
In short: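 IC50 values were fitted with a 4-parameter Hill equation to luciferase signal, scaled between IL-23-only wells (0% inhibition) and 30 μM reference inhibitor (100%). The readout was a STAT-inducible reporter in IL-23R/IL-12Rβ1 HEK293 cells, stimulated with added 10 ng/mL IL-23 (EC90) for 5 h at 37° C and developed with BioGlo.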

[1] = tested on: IL-23-stimulated phosphorylated STAT3 in peripheral blood mononuclear cells (PBMCs); assay: PBMC pSTAT3 Assay; format: cell-based; conditions: PBMCs from healthy donors; 30 min preincubation with peptide; IL-23 5 ng/mL for 30 min; phospho-STAT3 by MSD
In short: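 Phospho-STAT3 quantified by Meso Scale assay in lysates of PBMCs exposed to IL-23 (5 ng/mL, 30 min, 37 °C) after 30 min peptide pretreatment. Cells were cryopreserved donor PBMCs activated 4 days with anti-CD3 plus IL-1β (100 ng/mL) and starved ~4 h; IC50 reported.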

| IC50 (IL-23R) [nM] | SMILES | IC50 [1] [nM] |
| --- | --- | --- |
| 50 to 500 | CC(=O)[C@H](CCC(=O)NCCOCCOCCOCCOCCOCCOCCC(=O)NCCCC[C@@H](C(N)=O)N(C)C(=O)[C@H](Cc1cccnc1)NC(=O)[C@H](CC(N)=O)NC(=O)[C@H](CCC(=O)O)NC(=O)C1(NC(=O)[C@H](Cc2ccc3ccccc3c2)NC(=O)C(Cc2ccc(OCCN)cc2)NC(=O)[C@H]2NC(=O)[C@H](CCN(C)C(=O)CCOCCOCCOCCOCC[N+](C)(C)C)NC(=O)[C@H](Cc3c[nH]c4c(C)cccc34)NC(=O)[C@H]([C@@H](C)O)NC(=O)[C@H](CC(=O)N(C)C)NC(=O)[C@@H](NC(=O)CCOCCOCCOCCOCC[N+](C)(C)C)C(C)(C)SSC2(C)C)CCOCC1)NC(=O)CCCCCCCCCCCCCCCCC(=O)O (stereo partly drawn) [compound 90, cPEG5aCO-Pen(3)-N(N(Me)2)-T-7MeW-Dab(NMecPEG5a)-Pen(3)-AEF-2Nal-THP-E-N-3Pya-NMeK(PEG6gEC18OH)-CONH2] ({Me3N+CH2CH2(OCH2CH2)4CO}-[Pen]D(NMe2)T[Trp(7-Me)][X6](Me3N+CH2CH2(OCH2CH2)4CO)[Pen][ξAEF][2Nal][Thp]EN[3Pal][NMeK]([PEG6-X28])-NH2; disulfide 1-6) | < 0.5 |
| < 50 | CC(=O)[C@H](CCC(=O)NCCOCCOCCOCCOCCOCCOCCC(=O)NCCCC[C@@H](C(N)=O)N(C)C(=O)[C@H](Cc1cccnc1)NC(=O)[C@H](CC(N)=O)NC(=O)[C@H](CCC(=O)O)NC(=O)C1(NC(=O)[C@H](Cc2ccc3ccccc3c2)NC(=O)C(Cc2ccc(OCCN)cc2)NC(=O)[C@H]2NC(=O)[C@H](CCN(C)C(=O)CCOCCOCCOCCOCC[N+](C)(C)C)NC(=O)[C@H](Cc3c[nH]c4c(C)cccc34)NC(=O)[C@H]([C@@H](C)O)NC(=O)[C@H](CC(=O)N(C)C)NC(=O)[C@@H](NC(=O)CCOCCOCCOCCOCC[N+](C)(C)C)C(C)(C)SSC2(C)C)CCOCC1)NC(=O)CCCCCCCCCCCCCCCCC(=O)O (stereo partly drawn) [compound 91, HOC18gEPEG2PEG2COSP6-Pen(3)-N(N(Me)2)-T-7MeW-K(NMeAc)-Pen(3)-APEG3F-2Nal-THP-K(NMeAc)-N-3Pya-Sar-CON(Me)2] ({Me3N+CH2CH2(OCH2CH2)4CO}-[Pen]D(NMe2)T[Trp(7-Me)][X6](Me3N+CH2CH2(OCH2CH2)4CO)[Pen][ξAEF][2Nal][Thp]EN[3Pal][NMeK]([PEG6-X28])-NH2; disulfide 1-6) | < 0.5 |
| 50 to 500 | CC(=O)N[C@H](CCCNC(=N)N)C(=O)N[C@@H]1C(=O)N[C@@H](CC(N)=O)C(=O)N[C@@H]([C@@H](C)O)C(=O)N[C@@H](Cc2c[nH]c3c(C)cccc23)C(=O)N[C@@H](CCCCNC(=O)COCCOCCNC(=O)COCCOCCNC(=O)CC[C@H](NC(=O)CCCCCCCCCCCCCCC(=O)O)C(=O)O)C(=O)N[C@H](C(=O)N[C@@H](Cc2ccc(OCCCCC[N+](C)(C)C)cc2)C(=O)N[C@@H](Cc2ccc3ccccc3c2)C(=O)NC2(C(=O)N[C@@H](CCC(=O)O)C(=O)N[C@@H](CC(N)=O)C(=O)N[C@@H](Cc3cccnc3)C(=O)N(C)CC(=O)N(C)C)CCOCC2)C(C)(C)SSC1(C)C [compound 92, MeCO-r-Pen(3)-N-T-7MeW-K(PEG2PEG2gEC18OH)-Pen(3)-TMAPF-2Nal-THF-E-N-3Pya-Sar-CONH2] (Ac-[dR][Pen]NT[Trp(7-Me)]K([AEEA-AEEA-γGlu-C16 diacid])[Pen]Y(X1)[2Nal][Thp]EN[3Pal][Sar]-NMe2; disulfide 2-7) | < 0.5 |
